According to patent publication US6440991B1, “Ethers of 7-desmethlrapamycin” (Wyeth, priority 2000, dated 2002):
Values after ≈ are worked out from the molar mass of the structure shown.

Columns and labels:
Assay type in all cases: cell-based
Candida parapsilosis = experiment: Antifungal activity, microtiter broth dilution MIC; details: RPMI 1640, 35° C., 24-48 hours
Protocol: (§1) The antifungal activity for the ethers of 7-desmethylrapamycin of this invention was confirmed in a standard pharmacological test procedure which measured the ability of the compound being evaluated to inhibit fungal growth. 42-O-(2-Hydroxy)ethyl 7-desmethylrapamycin […] (Compound I) was evaluated as a representative compound of this invention. The procedure used and results obtained are briefly described below. A 96 U-bottom microtiter plate was filled (50 μl/well) with RPMI 1640. The compounds to be evaluated were placed in appropriate wells, and serial diluted in successive wells to provide 11 dilutions. The concentrations ranged from 64 through 0.06 μug/ml. An adjusted inoculum of fungi (50 μl) was added to each well and the plates were incubated at 35° C. for 24-48 hours. […] Nystatin and amphotericin B were used for the purpose of comparison.

Candida lusitaniae = experiment: Antifungal activity, microtiter broth dilution MIC; details: Candida lusitaniae strain 94-3; RPMI 1640, 35° C., 24-48 hours
Protocol: as §1

Aspergillus fumigatus = experiment: Antifungal activity, microtiter broth dilution MIC; details: Aspergillus fumigatus strain ATCC 26933; RPMI 1640, 35° C., 24-48 hours
Protocol: as §1

Candida rugosa = experiment: Antifungal activity, microtiter broth dilution MIC; details: Candida rugosa strain 94-10; RPMI 1640, 35° C., 24-48 hours
Protocol: as §1

Aspergillus niger = experiment: Antifungal activity, microtiter broth dilution MIC; details: RPMI 1640, 35° C., 24-48 hours
Protocol: as §1

Candida tropicalis = experiment: Antifungal activity, microtiter broth dilution MIC; details: RPMI 1640, 35° C., 24-48 hours
Protocol: as §1

Candida krussii = experiment: Antifungal activity, microtiter broth dilution MIC; details: Candida krussii strain 94-2; RPMI 1640, 35° C., 24-48 hours
Protocol: as §1

Candida pseudotropicalis = experiment: Antifungal activity, microtiter broth dilution MIC; details: Candida pseudotropicalis strain ATCC 28838; RPMI 1640, 35° C., 24-48 hours
Protocol: as §1

Candida albicans = experiment: Antifungal activity, microtiter broth dilution MIC; details: RPMI 1640, 35° C., 24-48 hours
Protocol: as §1

[1] = test system: U87MG human glioblastoma cells; experiment: Inhibition of U87MG human glioblastoma cell growth (3H-thymidine incorporation); details: 48 hours incubation with compound
Protocol: The antineoplastic activity of the compounds of this invention were confirmed in a standard pharmacological test procedure which measures the inhibition of U87MG human glioblastoma cell growth (as a function of ^3H-thymidine incorporation), using 42-O-(2-hydroxy)ethyl 7-desmethylrapamycin (Compound I) as a representative compound of this invention. The following briefly describes the procedure used and results obtained. U87MG human glioblastoma cells (ATCC # HTB-14; available from the American Type Culture Collection; 10801 University Boulevard; Manassas, Va. 20110;), were grown in the following media.
Growth Medium: BRL Minimum Essential Medium with Earle Salts (500 mL)
+5 mL BRL MEM Non-Essential Amino Acids (10 mM)
+5 mL BRL Penicillin-Streptomycin (1 0000u/mL,1 0000 μg/mL)
+5 mL BRL Na Pyruvate Solution (100 mM)
+5 mL BRL L-Glutamine 200 mM
+50 mL BRL Fetal Bovine Serum (Qualified)
1. Cells were trypsinized and plated at a concentration of 10^4 cells/well in a final volume of 200 μL growth medium in 96-well flat bottom plates and allowed to adhere for 24 hours at 37° C.
2. The media was removed by aspiration with care to not disturb the cell monolayer. 200 μL of fresh growth media was added per well, allowing enough wells for samples to be run in triplicate. […]
4. […] Mats were counted in a Wallac Betaplate counter.

[2] = Candida parapsilosis strain 94-8
[3] = Candida parapsilosis strain 94-9
[4] = Candida parapsilosis strain ATCC 90018
[5] = Candida tropicalis strain 94-13
[6] = Candida tropicalis strain 94-14
[7] = Candida albicans strain ATCC 90028

C[C@@H]1[C@H](O)[C@@H](C)/C=C/C=C/C=C/C=C/C=C/C=C/C=C/[C@H](O[C@@H]2O[C@H](C)[C@@H](O)[C@H](N)[C@@H]2O)C[C@@H]2O[C@](O)(C[C@@H](O)C[C@@H](O)[C@H](O)CC[C@@H](O)C[C@@H](O)CC(=O)O[C@H]1C)C[C@H](O)[C@H]2C(=O)O [Amphotericin B, amphotericin B]
ANTIFUNGAL ACTIVITY (MIC) (Candida parapsilosis; [2]): ≦0.06 μg/mL | ANTIFUNGAL ACTIVITY (MIC) (Candida parapsilosis; [3]): 0.12 µg/mL | ANTIFUNGAL ACTIVITY (MIC) (Candida parapsilosis; [4]): ≦0.06 μg/mL | ANTIFUNGAL ACTIVITY (MIC) (Candida lusitaniae): ≦0.06 μg/mL | ANTIFUNGAL ACTIVITY (MIC) (Aspergillus fumigatus): 0.25 µg/mL | ANTIFUNGAL ACTIVITY (MIC) (Candida rugosa): 0.25 µg/mL | ANTIFUNGAL ACTIVITY (MIC) (Aspergillus niger; Aspergillus niger strain S399): 0.50 µg/mL | ANTIFUNGAL ACTIVITY (MIC) (Aspergillus niger; Aspergillus niger strain S430): 0.25 µg/mL | ANTIFUNGAL ACTIVITY (MIC) (Candida tropicalis; [5]): ≦0.06 μg/mL | ANTIFUNGAL ACTIVITY (MIC) (Candida tropicalis; [6]): ≦0.06 μg/mL | ANTIFUNGAL ACTIVITY (MIC) (Candida krussii): 0.12 µg/mL | ANTIFUNGAL ACTIVITY (MIC) (Candida pseudotropicalis): ≦0.06 μg/mL | ANTIFUNGAL ACTIVITY (MIC) (Candida albicans; Candida albicans strain 1063): ≦0.06 μg/mL | ANTIFUNGAL ACTIVITY (MIC) (Candida albicans; Candida albicans strain 1117): 0.12 µg/mL | ANTIFUNGAL ACTIVITY (MIC) (Candida albicans; [7]): 0.12 µg/mL

CO[C@@H]1C[C@H](C[C@@H](C)[C@@H]2CC(=O)[C@H](C)/C=C(\C)[C@@H](O)[C@@H](OC)C(=O)[C@H](C)C[C@H](C)/C=C/C=C/C=C(\C)[C@@H](O)C[C@@H]3CC[C@@H](C)[C@@](O)(O3)C(=O)C(=O)N3CCCC[C@H]3C(=O)O2)CC[C@H]1OCCO [Compound I, 42-O-(2-Hydroxy)ethyl 7-desmethyirapamycin]
IC50 [1]: 0.0035 µg/mL (≈ 3.71 nM) | ANTIFUNGAL ACTIVITY (MIC) (Candida parapsilosis; [2]): 2 µg/mL | ANTIFUNGAL ACTIVITY (MIC) (Candida parapsilosis; [3]): 2 µg/mL | ANTIFUNGAL ACTIVITY (MIC) (Candida parapsilosis; [4]): 2 µg/mL | ANTIFUNGAL ACTIVITY (MIC) (Candida lusitaniae): 1 µg/mL | ANTIFUNGAL ACTIVITY (MIC) (Aspergillus fumigatus): 64 µg/mL | ANTIFUNGAL ACTIVITY (MIC) (Candida rugosa): 1 µg/mL | ANTIFUNGAL ACTIVITY (MIC) (Aspergillus niger; Aspergillus niger strain S399): 64 µg/mL | ANTIFUNGAL ACTIVITY (MIC) (Aspergillus niger; Aspergillus niger strain S430): 64 µg/mL | ANTIFUNGAL ACTIVITY (MIC) (Candida tropicalis; [5]): 0.5 µg/mL | ANTIFUNGAL ACTIVITY (MIC) (Candida tropicalis; [6]): 0.5 µg/mL | ANTIFUNGAL ACTIVITY (MIC) (Candida krussii): 0.5 µg/mL | ANTIFUNGAL ACTIVITY (MIC) (Candida pseudotropicalis): 2 µg/mL | ANTIFUNGAL ACTIVITY (MIC) (Candida albicans; Candida albicans strain 1063): 1 µg/mL | ANTIFUNGAL ACTIVITY (MIC) (Candida albicans; Candida albicans strain 1117): 2 µg/mL | ANTIFUNGAL ACTIVITY (MIC) (Candida albicans; [7]): 2 µg/mL

C[C@@H]1[C@H](O)[C@@H](C)/C=C/C=C/CC/C=C/C=C/C=C/C=C/C(O[C@H]2O[C@H](C)[C@@H](O)[C@H](N)[C@@H]2O)CC2O[C@](O)(CC(O)C(O)CCC(O)CC(O)CC(O)CC(=O)O[C@H]1C)CC(O)C2C(=O)O (stereo partly shown) [Nystatin]
ANTIFUNGAL ACTIVITY (MIC) (Candida parapsilosis; [2]): 2 µg/mL | ANTIFUNGAL ACTIVITY (MIC) (Candida parapsilosis; [3]): 1 µg/mL | ANTIFUNGAL ACTIVITY (MIC) (Candida parapsilosis; [4]): 2 µg/mL | ANTIFUNGAL ACTIVITY (MIC) (Candida lusitaniae): 1 µg/mL | ANTIFUNGAL ACTIVITY (MIC) (Aspergillus fumigatus): 2 µg/mL | ANTIFUNGAL ACTIVITY (MIC) (Candida rugosa): 1 µg/mL | ANTIFUNGAL ACTIVITY (MIC) (Aspergillus niger; Aspergillus niger strain S399): 2 µg/mL | ANTIFUNGAL ACTIVITY (MIC) (Aspergillus niger; Aspergillus niger strain S430): 1 µg/mL | ANTIFUNGAL ACTIVITY (MIC) (Candida tropicalis; [5]): 1 µg/mL | ANTIFUNGAL ACTIVITY (MIC) (Candida tropicalis; [6]): 1 µg/mL | ANTIFUNGAL ACTIVITY (MIC) (Candida krussii): 1 µg/mL | ANTIFUNGAL ACTIVITY (MIC) (Candida pseudotropicalis): 1 µg/mL | ANTIFUNGAL ACTIVITY (MIC) (Candida albicans; Candida albicans strain 1063): 1 µg/mL | ANTIFUNGAL ACTIVITY (MIC) (Candida albicans; Candida albicans strain 1117): 1 µg/mL | ANTIFUNGAL ACTIVITY (MIC) (Candida albicans; [7]): 1 µg/mL
